IC50 data for 27 compounds are collected here from US20240043427A1 (Gilead Sciences, Inc., priority 2020, published 2024).

The target in this experiment is CD73 (Homo sapiens (Human), UniProt P21589). The format is biochemical. To be noted: 1 mM NaH2PO4 in enzyme buffer, CD73 0.3 nM, AMP 15 uM.
Chain of CD73 (P21589 27-574): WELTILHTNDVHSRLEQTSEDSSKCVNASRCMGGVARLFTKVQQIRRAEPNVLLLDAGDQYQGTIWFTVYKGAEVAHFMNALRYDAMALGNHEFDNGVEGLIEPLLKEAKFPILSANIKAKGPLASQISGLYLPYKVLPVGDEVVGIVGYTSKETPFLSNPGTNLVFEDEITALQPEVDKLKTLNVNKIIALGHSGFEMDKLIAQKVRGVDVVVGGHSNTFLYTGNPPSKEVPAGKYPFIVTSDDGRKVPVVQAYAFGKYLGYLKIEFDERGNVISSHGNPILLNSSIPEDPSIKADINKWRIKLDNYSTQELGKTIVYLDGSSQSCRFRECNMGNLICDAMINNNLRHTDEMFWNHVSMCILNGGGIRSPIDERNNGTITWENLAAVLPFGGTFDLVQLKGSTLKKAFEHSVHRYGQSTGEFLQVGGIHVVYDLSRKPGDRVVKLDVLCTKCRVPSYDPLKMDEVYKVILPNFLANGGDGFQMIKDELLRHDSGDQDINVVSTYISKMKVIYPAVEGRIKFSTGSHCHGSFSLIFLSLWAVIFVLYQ
With `CC1(C)CN(C(=O)c2cccc([C@H]3C[C@@H]3c3cc(-c4c[nH]c(=O)[nH]c4=O)nn4ccnc34)c2)C1` (racemic) [Example 298, 5-(8-((1S,2S)-2-(3-(3,3-dimethylazetidine-1-carbonyl)phenyl)cyclopropyl)imidazo[1,2-b]pyridazin-6-yl)pyrimidine-2,4(1H,3H)-dione], the IC50 (commonly the midpoint of a concentration-inhibition curve) came out at 3.78 nM.
The value for `O=C(c1ccc([C@H]2C[C@@H]2c2cc(-c3c[nH]c(=O)[nH]c3=O)nn3ccnc23)cc1)N1C[C@@H](F)[C@H](F)C1` (racemic) [Example 299, 5-(8-((1S,2S)-2-(4-((3R,4R)-3,4-difluoropyrrolidine-1-carbonyl)phenyl)cyclopropyl)imidazo[1,2-b]pyridazin-6-yl)pyrimidine-2,4(1H,3H)-dione] was 7.85 nM; that for `O=C(c1cccc([C@H]2C[C@@H]2c2cc(-c3c[nH]c(=O)[nH]c3=O)nn3ccnc23)c1)N1C[C@@H](F)[C@H](F)C1` (racemic) [Example 300, 5-(8-((1S,2S)-2-(3-((3R,4R)-3,4-difluoropyrrolidine-1-carbonyl)phenyl)cyclopropyl)imidazo[1,2-b]pyridazin-6-yl)pyrimidine-2,4(1H,3H)-dione] was 1.8 nM; that for `O=C(c1ccc([C@H]2C[C@@H]2c2cc(-c3c[nH]c(=O)[nH]c3=O)nn3ccnc23)cc1)N1C[C@@H](F)[C@@H](F)C1` (racemic) [Example 301, 5-(8-((1S,2S)-2-(4-((3S,4R)-3,4-difluoropyrrolidine-1-carbonyl)phenyl)cyclopropyl)imidazo[1,2-b]pyridazin-6-yl)pyrimidine-2,4(1H,3H)-dione] was 4.45 nM.
The value for `O=C(c1cccc([C@H]2C[C@@H]2c2cc(-c3c[nH]c(=O)[nH]c3=O)nn3ccnc23)c1)N1C[C@@H](F)[C@@H](F)C1` (racemic) [Example 302, 5-(8-((1S,2S)-2-(3-((3S,4R)-3,4-difluoropyrrolidine-1-carbonyl)phenyl)cyclopropyl)imidazo[1,2-b]pyridazin-6-yl)pyrimidine-2,4(1H,3H)-dione] was 3.08 nM; that for `O=C(c1ccc([C@H]2C[C@@H]2c2cc(-c3c[nH]c(=O)[nH]c3=O)nn3ccnc23)cc1)N1CC(F)(F)C(F)(F)C1` (racemic) [Example 303, 5-(8-((1S,2S)-2-(4-(3,3,4,4-tetrafluoropyrrolidine-1-carbonyl)phenyl)cyclopropyl)imidazo[1,2-b]pyridazin-6-yl)pyrimidine-2,4(1H,3H)-dione] was 7.74 nM; that for `O=C(c1cccc([C@H]2C[C@@H]2c2cc(-c3c[nH]c(=O)[nH]c3=O)nn3ccnc23)c1)N1CC(F)(F)C(F)(F)C1` (racemic) [Example 304, 5-(8-((1S,2S)-2-(3-(3,3,4,4-tetrafluoropyrrolidine-1-carbonyl)phenyl)cyclopropyl)imidazo[1,2-b]pyridazin-6-yl)pyrimidine-2,4(1H,3H)-dione] was 3.59 nM.
The value for `O=C(c1ccc([C@H]2C[C@@H]2c2cc(-c3c[nH]c(=O)[nH]c3=O)nn3ccnc23)cc1)N1CCC(F)(F)C1` (racemic) [Example 305, 5-(8-((1S,2S)-2-(4-(3,3-difluoropyrrolidine-1-carbonyl)phenyl)cyclopropyl)imidazo[1,2-b]pyridazin-6-yl)pyrimidine-2,4(1H,3H)-dione] was 4.81 nM; that for `O=C(c1cccc([C@H]2C[C@@H]2c2cc(-c3c[nH]c(=O)[nH]c3=O)nn3ccnc23)c1)N1CCC(F)(F)C1` (racemic) [Example 306, 5-(8-((1S,2S)-2-(3-(3,3-difluoropyrrolidine-1-carbonyl)phenyl)cyclopropyl)imidazo[1,2-b]pyridazin-6-yl)pyrimidine-2,4(1H,3H)-dione] was 1.67 nM.
Regarding `CC1(C)CCN(C(=O)c2ccc([C@H]3C[C@@H]3c3cc(-c4c[nH]c(=O)[nH]c4=O)nn4ccnc34)cc2)C1` (racemic) [Example 307, 5-(8-((1S,2S)-2-(4-(3,3-dimethylpyrrolidine-1-carbonyl)phenyl)cyclopropyl)imidazo[1,2-b]pyridazin-6-yl)pyrimidine-2,4(1H,3H)-dione], the IC50 was determined as 16.1 nM. Against the preceding compound, the IC50 is about 9.6-fold higher.
To `CC1(C)CCN(C(=O)c2cccc([C@H]3C[C@@H]3c3cc(-c4c[nH]c(=O)[nH]c4=O)nn4ccnc34)c2)C1` (racemic) [Example 308, 5-(8-((1S,2S)-2-(3-(3,3-dimethylpyrrolidine-1-carbonyl)phenyl)cyclopropyl)imidazo[1,2-b]pyridazin-6-yl)pyrimidine-2,4(1H,3H)-dione] belongs 5.47 nM; to `O=c1[nH]cc(-c2cc([C@H]3C[C@@H]3c3ccccc3OC(F)(F)F)c3nccn3n2)c(=O)[nH]1` (racemic) [Example 309, 5-(8-((1S,2S)-2-(2-(trifluoromethoxy)phenyl)cyclopropyl)imidazo[1,2-b]pyridazin-6-yl)pyrimidine-2,4(1H,3H)-dione], 42.3 nM; to `N#Cc1cncc([C@H]2C[C@@H]2c2cc(-c3c[nH]c(=O)[nH]c3=O)nn3ccnc23)c1` (racemic) [Example 311, 5-((1S,2S)-2-(6-(2,4-dioxo-1,2,3,4-tetrahydropyrimidin-5-yl)imidazo[1,2-b]pyridazin-8-yl)cyclopropyl)nicotinonitrile], 4.72 nM.
To `CNC(=O)c1ccc([C@H]2C[C@@H]2c2cc(-c3c[nH]c(=O)[nH]c3=O)nn3c(F)cnc23)cc1` (racemic) [Example 312, 4-((1S,2S)-2-(6-(2,4-dioxo-1,2,3,4-tetrahydropyrimidin-5-yl)-3-fluoroimidazo[1,2-b]pyridazin-8-yl)cyclopropyl)-N-methylbenzamide] belongs 1.29 nM.
To `Cc1nc2cc([C@H]3C[C@@H]3c3cc(-c4c[nH]c(=O)[nH]c4=O)nn4ccnc34)ccc2s1` (racemic) [Example 321, 5-(8-((1S,2S)-2-(2-methylbenzo[d]thiazol-5-yl)cyclopropyl)imidazo[1,2-b]pyridazin-6-yl)pyrimidine-2,4(1H,3H)-dione] belongs 1.12 nM; to `Cn1ncc2ccc([C@H]3C[C@@H]3c3cc(-c4c[nH]c(=O)[nH]c4=O)nn4ccnc34)cc21` (racemic) [Example 326, 5-(8-((1S,2S)-2-(1-methyl-1H-indazol-6-yl)cyclopropyl)imidazo[1,2-b]pyridazin-6-yl)pyrimidine-2,4(1H,3H)-dione], 0.91 nM.
On to `O=c1[nH]cc(-c2cc([C@H]3C[C@@H]3c3ccc(OC(F)(F)F)cc3)c3nccn3n2)c(=O)[nH]1` (racemic) [Example 359, 5-(8-((1S,2S)-2-(4-(trifluoromethoxy)phenyl)cyclopropyl)imidazo[1,2-b]pyridazin-6-yl)pyrimidine-2,4(1H,3H)-dione], for which the IC50 is 1.74 nM.
Take `O=c1[nH]cc(-c2cc([C@H]3C[C@@H]3c3ccc4c(c3)OC(F)(F)O4)c3nccn3n2)c(=O)[nH]1` (racemic) [Example 360, 5-(8-((1S,2S)-2-(2,2-difluorobenzo[d][1,3]dioxol-5-yl)cyclopropyl)imidazo[1,2-b]pyridazin-6-yl)pyrimidine-2,4(1H,3H)-dione]: the half-inhibitory concentration (IC50) is 0.92 nM.
For `O=c1[nH]cc(-c2cc([C@H]3C[C@@H]3c3ccc(OCC(F)(F)F)cn3)c3nccn3n2)c(=O)[nH]1` (racemic) [Example 363, 5-(8-((1S,2S)-2-(5-(2,2,2-trifluoroethoxy)pyridin-2-yl)cyclopropyl)imidazo[1,2-b]pyridazin-6-yl)pyrimidine-2,4(1H,3H)-dione], the IC50 is 2 nM.
To `O=c1[nH]cc(-c2cc([C@H]3C[C@@H]3c3ncc(C(F)(F)F)s3)c3nccn3n2)c(=O)[nH]1` (racemic) [Example 364, 5-(8-((1S,2S)-2-(5-(trifluoromethyl)thiazol-2-yl)cyclopropyl)imidazo[1,2-b]pyridazin-6-yl)pyrimidine-2,4(1H,3H)-dione] belongs 7.17 nM.
To `O=c1[nH]cc(-c2cc([C@H]3C[C@@H]3c3cnn(C(F)(F)F)c3)c3nccn3n2)c(=O)[nH]1` (racemic) [Example 366, 5-(8-((1S,2S)-2-(1-(trifluoromethyl)-1H-pyrazol-4-yl)cyclopropyl)imidazo[1,2-b]pyridazin-6-yl)pyrimidine-2,4(1H,3H)-dione] belongs 6.6 nM; to `O=c1[nH]cc(-c2cc([C@H]3C[C@@H]3c3cnn(C(F)F)c3)c3nccn3n2)c(=O)[nH]1` (racemic) [Example 368, 5-(8-((1S,2S)-2-(1-(difluoromethyl)-1H-pyrazol-4-yl)cyclopropyl)imidazo[1,2-b]pyridazin-6-yl)pyrimidine-2,4(1H,3H)-dione], 3.73 nM; to `O=c1[nH]cc(-c2cc([C@H]3C[C@@H]3c3ccn(C(F)F)n3)c3nccn3n2)c(=O)[nH]1` (racemic) [Example 369, 5-(8-((1S,2S)-2-(1-(difluoromethyl)-1H-pyrazol-3-yl)cyclopropyl)imidazo[1,2-b]pyridazin-6-yl)pyrimidine-2,4(1H,3H)-dione], 21.5 nM.
In the case of `O=c1[nH]cc(-c2cc([C@H]3C[C@@H]3c3cnn(C(F)F)c3)c3ncc(F)n3n2)c(=O)[nH]1` (racemic) [Example 370, 5-(8-((1S,2S)-2-(1-(difluoromethyl)-1H-pyrazol-4-yl)cyclopropyl)-3-fluoroimidazo[1,2-b]pyridazin-6-yl)pyrimidine-2,4(1H,3H)-dione], the IC50 amounted to 4.02 nM.
To `O=c1[nH]cc(-c2cc([C@H]3C[C@@H]3c3ccc(OC(F)(F)F)cn3)c3nccn3n2)c(=O)[nH]1` (racemic) [Example 372, 5-(8-((1S,2S)-2-(5-(trifluoromethoxy)pyridin-2-yl)cyclopropyl)imidazo[1,2-b]pyridazin-6-yl)pyrimidine-2,4(1H,3H)-dione] belongs 3.4 nM.
`O=c1[nH]cc(-c2cc([C@H]3C[C@@H]3c3ccc(OC(F)(F)F)cn3)c3ncc(F)n3n2)c(=O)[nH]1` (racemic) [Example 374, 5-(3-fluoro-8-((1S,2S)-2-(5-(trifluoromethoxy)pyridin-2-yl)cyclopropyl)imidazo[1,2-b]pyridazin-6-yl)pyrimidine-2,4(1H,3H)-dione] had an IC50 of 4.1 nM.
As to `O=c1[nH]cc(-c2cc([C@H]3C[C@@H]3c3ccc(OC(F)(F)F)nc3)c3nccn3n2)c(=O)[nH]1` (racemic) [Example 376, 5-(8-((1S,2S)-2-(6-(trifluoromethoxy)pyridin-3-yl)cyclopropyl)imidazo[1,2-b]pyridazin-6-yl)pyrimidine-2,4(1H,3H)-dione], inhibition was half-maximal at 8.07 nM (IC50).
